Assay results published in patent US20240294495A1, “COMPOUNDS THAT MEDIATE PROTEIN DEGRADATION AND METHODS OF USE THEREOF” (Monte Rosa Therapeutics, Inc., priority 2021, published 2024).

Experiments:
CRBN-DDB1 = CRBN-DDB1 (Homo sapiens, UniProt Q96SW2); experiment: Compound binding to CRBN by HTRF assay; settings: CRBN-DDB1 2.5 nM, Cy5-Thalidomide 100 nM probe, 30 min incubation; read-out: HTRF Class (Cereblon binding, HTRF IC50)
Method: Compound activity was monitored in a Homogenous Time-Resolved Fluorescence (HTRF) assay using 1-[5-({2-[2-(2-{[2-(2,6-dioxopiperidin-3-yl)-1,3-dioxo-2,3-dihydro-1H-isoindol-4-yl]oxy}acetamido)ethoxy]ethyl}carbamoyl)pentyl]-3,3-dimethyl-2-[(1E,3E)-5-[(2E)-1,3,3-trimethyl-5-sulfo-2,3-dihydro-1H-indol-2-ylidene]penta-1,3-dien-1-yl]-3H-indol-1-ium-5-sulfonate as a fluorescent probe. Biochemical assays were conducted in Greiner white 384 well HiBase plates (Cat. No 784075-25) in 10 μL total volume. A one pot detection solution of CRBN-DDB1 (2.5 nM), Anti-His Terbium Cryptate Gold (1×, PerkinElmer Cat. #: 61HI2TLB), and Cy5-Thalidomide (100 nM, Tenova Cat.: T52461) was prepared in 20 mM HEPES, 20 mM NaCl, 0.2 mM TCEP, 0.2 mM EDTA, and 0.005% Tween20 was dispensed to each assay plate. Compounds were stored in dry, ambient temperatures at 10 mM. A 10-point, 1:3 dilution series was prepared from 10 mM stock concentrations in Echo-compatible LDV plates. 10 nL of each compound dilution series was dispensed into assays wells using an Echo 650 (Labcyte inc. USA). 10 nL of 10 mM Lenalidomide was transferred into the active-control wells for the assay and 10 nL of DMSO was transferred into the neutral-control wells. The assay was then allowed to incubate for 30 min at ambient temperature after transferring compound. Plate measurements were taken on a Pherastar FSX (BMG Labtech, Germany) using the HTRF Red filter (Ex. 337 nm, em1: 620 nm, em2: 665 nm) (Flashes: 50, Integration time: 60-400 us, Z-height: 10 mm, Ratio-multiplier: 10,000). The HTRF signal was then subsequently normalized to the neutral and active controls. Analysis and IC50 values were derived using KNIME analytics (KNIME Zurich) transformation and fitting within Collaborative Drug Discovery (Collaborative Drug Discovery USA). Ki was derived from the geometric mean of the IC50 values using the Cheng-Prustoff transformation.
(§1) In Table 2, each compound is assigned a class (HTRF class) indicating the ability for Cereblon binding by means of their HTRF IC50 values according to Example 3: A, B or C. According to the code, A represents an IC50 value of <100 nM, B represents an IC50 value>100 nM and <1000 nM, C represents an IC50 value>1000 nM. IF Class assigns each compound a code indicating the ability for GSPT1 degradation: A, B or C. According to the code, A represents a DC50 value of <30 nM, B represents a DC50 value>30 nM and <300 nM and C represents a DC50 value of >300 nM.

GSPT1 = target: T1, GSPT1 (Homo sapiens, UniProt P15170+Q96SW2); experiment: Immunofluorescence assay for GSPT1 degradation in CAL-51 cells; type: cell-based; settings: 6 h treatment, read-out: IF Class (GSPT1 degradation, DC50)
T1 construct: CAL-51 cells were purchased from DSMZ (cat. Number ACC302); endogenous in cells; host or cells: CAL-51 (DSMZ ACC302)
T1 sequence (P15170 whole entry): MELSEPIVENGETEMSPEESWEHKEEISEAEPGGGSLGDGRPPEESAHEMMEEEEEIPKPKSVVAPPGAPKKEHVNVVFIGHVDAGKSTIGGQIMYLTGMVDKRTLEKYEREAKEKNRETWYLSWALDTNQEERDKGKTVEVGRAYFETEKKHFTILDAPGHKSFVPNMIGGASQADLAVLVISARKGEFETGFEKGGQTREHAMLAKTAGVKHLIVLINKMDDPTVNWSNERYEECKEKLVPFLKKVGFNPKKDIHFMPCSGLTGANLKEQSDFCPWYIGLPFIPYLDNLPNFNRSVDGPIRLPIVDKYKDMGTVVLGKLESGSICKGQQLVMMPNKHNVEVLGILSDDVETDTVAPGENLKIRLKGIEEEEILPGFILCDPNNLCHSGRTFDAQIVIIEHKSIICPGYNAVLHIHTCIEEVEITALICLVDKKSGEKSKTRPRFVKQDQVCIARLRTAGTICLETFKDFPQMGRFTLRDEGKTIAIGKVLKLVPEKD
T1 sequence (Q96SW2 whole entry): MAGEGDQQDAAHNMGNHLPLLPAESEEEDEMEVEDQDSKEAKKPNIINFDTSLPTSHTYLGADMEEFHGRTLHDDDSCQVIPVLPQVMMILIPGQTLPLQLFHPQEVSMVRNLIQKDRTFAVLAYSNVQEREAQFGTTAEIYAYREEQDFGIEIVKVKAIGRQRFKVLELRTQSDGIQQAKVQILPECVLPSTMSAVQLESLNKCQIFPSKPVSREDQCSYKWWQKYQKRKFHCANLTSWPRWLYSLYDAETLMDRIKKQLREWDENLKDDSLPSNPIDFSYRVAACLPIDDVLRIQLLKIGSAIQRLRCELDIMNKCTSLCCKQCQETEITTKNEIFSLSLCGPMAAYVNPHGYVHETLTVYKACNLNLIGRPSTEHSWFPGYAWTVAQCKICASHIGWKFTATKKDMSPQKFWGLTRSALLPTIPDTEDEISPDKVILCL
T1 sequence (Q16531 2-1140 partner limits assumed): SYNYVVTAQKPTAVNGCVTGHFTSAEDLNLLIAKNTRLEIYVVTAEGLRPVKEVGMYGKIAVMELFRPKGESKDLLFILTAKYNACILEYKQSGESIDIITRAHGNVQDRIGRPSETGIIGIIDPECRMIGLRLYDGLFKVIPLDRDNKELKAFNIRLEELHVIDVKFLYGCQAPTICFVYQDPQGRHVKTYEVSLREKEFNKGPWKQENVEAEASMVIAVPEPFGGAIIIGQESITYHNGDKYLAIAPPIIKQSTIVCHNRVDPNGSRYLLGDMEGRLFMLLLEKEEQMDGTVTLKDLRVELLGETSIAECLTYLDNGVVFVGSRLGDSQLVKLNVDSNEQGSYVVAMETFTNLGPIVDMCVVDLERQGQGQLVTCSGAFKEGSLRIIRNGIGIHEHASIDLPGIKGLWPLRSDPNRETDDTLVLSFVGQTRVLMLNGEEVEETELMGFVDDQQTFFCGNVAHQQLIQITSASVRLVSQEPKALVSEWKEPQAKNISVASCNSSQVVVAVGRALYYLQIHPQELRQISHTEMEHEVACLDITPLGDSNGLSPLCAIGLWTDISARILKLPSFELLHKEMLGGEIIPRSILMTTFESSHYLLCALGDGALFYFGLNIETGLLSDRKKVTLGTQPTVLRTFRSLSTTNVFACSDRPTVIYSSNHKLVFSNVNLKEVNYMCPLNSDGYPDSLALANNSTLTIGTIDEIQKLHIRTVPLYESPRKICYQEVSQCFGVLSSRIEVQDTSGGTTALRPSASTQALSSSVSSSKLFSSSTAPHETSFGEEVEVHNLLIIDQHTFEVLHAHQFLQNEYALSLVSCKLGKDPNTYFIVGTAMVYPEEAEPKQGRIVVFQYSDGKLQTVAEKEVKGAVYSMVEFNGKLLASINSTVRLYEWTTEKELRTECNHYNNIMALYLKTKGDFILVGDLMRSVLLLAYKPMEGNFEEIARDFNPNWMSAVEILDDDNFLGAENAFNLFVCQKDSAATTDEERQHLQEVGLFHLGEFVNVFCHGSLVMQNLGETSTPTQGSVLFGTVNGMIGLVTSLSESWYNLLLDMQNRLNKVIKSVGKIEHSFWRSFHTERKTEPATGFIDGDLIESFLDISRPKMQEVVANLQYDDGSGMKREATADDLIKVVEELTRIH
Method: The representative compounds were tested in an immunofluorescence assay for their activity to degrade GSPT1. CAL-51 cells were purchased from DSMZ (cat. Number ACC302), sub-cultured in 90% Dulbecco's MEM (4.5 g/L glucose, Gibco 11965)+10% heat inactivated FBS (BioConcept, 2-01F136I) and incubated at 37° C., 5% CO2. For the assay imaging microtiter plate Cell Carrier 96 Ultra (Perkin Elmer 6055302) were pre-coated with Fibronectin (Sigma F085, 30 μl at 0.2 μg/mL) in PBS (100 μL, Gibco 14190) for 45 min at room temperature, rinsed with PBS and CAL-51 cells (30K cells/well) were plated and let to adhere overnight. Cells were treated with compounds typically using a serial dilution ranging from 30 μM to 0.1 nM for 6 h. Compounds were stored at 10 mM DMSO stocks. Vehicle (DMSO), positive (CC-885, 10 μM) and rescue controls (positive control plus 0.2 μM bortezomib) were also included at this stage. Cells were subsequently rinsed with PBS and fixed in 10% Formalin solution (50 μl, Sigma HT5011)) for 20 min at room temperature. Following three consecutive PBS washes (100 μL), cells were permeabilized in 0.1% Triton X-100 in PBS (Sigma 93443, 50 μl) for 15 min at room temperature. Following three further PBS washes, 50 μl blocking buffer (1% BSA, Sigma A4503, in PBS) was added for 45 min for signal-to noise reduction. Primary antibody (human GSPT1, Sigma HPA052488) was diluted in blocking buffer (dil.1/300, 35 μL/well) and incubated with the cells overnight at 4° C. After three PBS washes, Alexa-fluor 488 coupled secondary antibodies (Invitrogen, A32731, dil.1/1000), Alexa-fluor 647-Phalloidin (Invitrogen, A22287, dil.1/200) and DAPI (Thermo, #62248, dil.1/1000) were diluted in blocking buffer and incubated with the samples for 2 h at room temperature. After three final PBS washes, samples were conserved in 100 μL PBS in the dark, until measurement. Image acquisition was performed on the Operetta High-Content Imager (Perkin-Elmer). Fluorescence intensity of […] (GSPT1), Alexa-Fluor 647 (Actin) and DAPI (Nucleus) were measured. For the determination of GSPT1 DC50 values, a custom algorithm implemented in the PerkinElmer image analysis software Harmony-Acapella® was developed. After user-defined setting of adjustment parameters, the analysis was run identically without human intervention for all image fields. DAPI staining of the nuclei was used to determine the location of cells using standard nuclei detection modules. Segmentation artifacts were removed by threshold-based filters for area, roundness and intensity. The outline of the cells was determined analogously from the sum of the normalized, smoothed DAPI and Actin channel, starting from each nucleus. The Alexa-Fluor 488 (GSPT1) signal intensity in each cell was finally measured, in order to obtain a Mean intensity per cell. GSPT1 degradation (DC50) was calculated after normalization to controls and data import in CDD vault Database, using non-linear regression.
as §1

Sequence of CRBN-DDB1 (Q96SW2 whole entry): as the sequence (Q96SW2 whole entry) above
Sequence of CRBN-DDB1 (Q16531 whole entry partner): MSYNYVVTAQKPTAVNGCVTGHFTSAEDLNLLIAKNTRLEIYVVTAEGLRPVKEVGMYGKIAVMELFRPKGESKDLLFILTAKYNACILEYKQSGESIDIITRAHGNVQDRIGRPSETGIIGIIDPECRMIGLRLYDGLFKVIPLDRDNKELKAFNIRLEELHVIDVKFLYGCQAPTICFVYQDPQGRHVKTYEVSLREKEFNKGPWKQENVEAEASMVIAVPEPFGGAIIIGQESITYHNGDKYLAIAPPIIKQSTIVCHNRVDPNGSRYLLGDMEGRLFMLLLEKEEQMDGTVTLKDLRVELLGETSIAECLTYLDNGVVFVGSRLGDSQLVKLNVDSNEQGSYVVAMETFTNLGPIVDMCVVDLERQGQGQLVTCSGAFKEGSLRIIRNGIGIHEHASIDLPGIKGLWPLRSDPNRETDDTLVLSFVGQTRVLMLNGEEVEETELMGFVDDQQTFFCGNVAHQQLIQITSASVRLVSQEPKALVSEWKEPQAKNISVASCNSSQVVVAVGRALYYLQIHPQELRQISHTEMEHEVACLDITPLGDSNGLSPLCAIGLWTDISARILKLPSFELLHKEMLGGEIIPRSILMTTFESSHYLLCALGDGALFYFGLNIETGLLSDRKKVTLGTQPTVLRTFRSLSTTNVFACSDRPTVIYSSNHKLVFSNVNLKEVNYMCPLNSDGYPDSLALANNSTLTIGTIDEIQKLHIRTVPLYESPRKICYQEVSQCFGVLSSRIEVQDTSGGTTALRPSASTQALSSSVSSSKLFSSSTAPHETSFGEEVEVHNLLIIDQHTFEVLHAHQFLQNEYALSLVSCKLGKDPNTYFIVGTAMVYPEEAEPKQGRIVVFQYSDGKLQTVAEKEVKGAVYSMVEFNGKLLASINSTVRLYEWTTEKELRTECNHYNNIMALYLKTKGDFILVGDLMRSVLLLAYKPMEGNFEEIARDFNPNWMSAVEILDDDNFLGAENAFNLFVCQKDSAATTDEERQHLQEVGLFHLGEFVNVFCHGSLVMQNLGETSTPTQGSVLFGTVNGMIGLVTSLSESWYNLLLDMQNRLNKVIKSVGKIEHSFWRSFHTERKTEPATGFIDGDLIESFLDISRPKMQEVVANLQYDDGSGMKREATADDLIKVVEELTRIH

SMILES	IC50 (CRBN-DDB1) [µM]	DC50 (GSPT1) [µM]
O=C1CCC(c2c(F)cc(N3CC(NC(=O)C45CC(c6ccccc6)(C4)C5)C3)cc2F)C(=O)N1 (stereo not drawn) [Compound 21, N-(1-(4-(2,6-dioxopiperidin-3-yl)-3,5-difluorophenyl)azetidin-3-yl)-3-phenylbicyclo [1.1.1]pentane-1-carboxamide]	0.1 to 1	> 0.3
O=C1CCC(c2c(F)cc(N3CC(NC(=O)Cc4cccc(OC(F)(F)F)c4)C3)cc2F)C(=O)N1 (stereo not drawn) [Compound 28, N-(1-(4-(2,6-dioxopiperidin-3-yl)-3,5-difluorophenyl)azetidin-3-yl)-2-(3-(trifluoromethoxy)phenyl) acetamide]	0.1 to 1	0.03 to 0.3
Cc1cc(C)nc(CC(=O)NC2CN(c3cc(F)c(C4CCC(=O)NC4=O)c(F)c3)C2)c1 (stereo not drawn) [Compound 51, 2-(4,6-dimethylpyridin-2-yl)-N-(1-(4-(2,6-dioxopiperidin-3-yl)-3,5-difluorophenyl)azetidin-3-yl) acetamide]	0.1 to 1	> 0.3
O=C1CCC(c2c(F)cc(N3CC(CC(=O)Nc4cc(OC(F)(F)F)ccc4F)C3)cc2F)C(=O)N1 (stereo not drawn) [Compound 9, 2-(1-(4-(2,6-dioxopiperidin-3-yl)-3,5-difluorophenyl)azetidin-3-yl)-N-(2-fluoro-5-(trifluoromethoxy)phenyl)acetamide]	0.1 to 1	< 0.03
O=C1CCC(c2c(F)cc(N3CC(NC(=O)CC4CCC4)C3)cc2F)C(=O)N1 (stereo not drawn) [Compound 2, 2-cyclobutyl-N-(1-(4-(2,6-dioxopiperidin-3-yl)-3,5-difluorophenyl)azetidin-3-yl)acetamide]	0.1 to 1	> 0.3
O=C1CCC(c2ccc(N3CC(NC(=O)C(F)(F)c4ccc(Cl)cc4)C3)cc2Cl)C(=O)N1 (stereo not drawn) [Compound 35, N-(1-(3-chloro-4-(2,6-dioxopiperidin-3-yl)phenyl)azetidin-3-yl)-2-(4-chlorophenyl)-2,2-difluoroacetamide]	–	> 0.3
O=C1CCC(c2ccc(N3CC(NC(=O)Cc4ccc(Cl)cc4)C3)cc2Cl)C(=O)N1 (stereo not drawn) [Compound 34, N-(1-(3-chloro-4-(2,6-dioxopiperidin-3-yl)phenyl)azetidin-3-yl)-2-(4-chlorophenyl)acetamide]	–	> 0.3
Cc1c(Cl)cc(NC(=O)CC2CN(c3cc(F)c(C4CCC(=O)NC4=O)c(F)c3)C2)cc1CN1CCOCC1 (stereo not drawn) [Compound 38, N-(3-chloro-4-methyl-5-(morpholinomethyl)phenyl)-2-(1-(4-(2,6-dioxopiperidin-3-yl)-3,5-difluorophenyl)azetidin-3-yl)acetamide]	–	< 0.03
O=C1CCC(c2c(F)cc(N3CC(NC(=O)C(F)(F)c4ccc(Cl)cc4)C3)cc2F)C(=O)N1 (stereo not drawn) [Compound 37, 2-(4-chlorophenyl)-N-(1-(4-(2,6-dioxopiperidin-3-yl)-3,5-difluorophenyl)azetidin-3-yl)-2,2-difluoroacetamide]	–	> 0.3
O=C1CCC(c2c(F)cc(N3CC(NC(=O)c4cc(Cl)ccc4F)C3)cc2F)C(=O)N1 (stereo not drawn) [Compound 46, 5-chloro-N-(1-(4-(2,6-dioxopiperidin-3-yl)-3,5-difluorophenyl)azetidin-3-yl)-2-fluorobenzamide]	0.1 to 1	–
O=C1CCC(c2c(F)cc(N3CC(CC(=O)Nc4cc(F)cc(OC(F)F)c4)C3)cc2F)C(=O)N1 (stereo not drawn) [Compound 45, N-(3-(difluoromethoxy)-5-fluorophenyl)-2-(1-(4-(2,6-dioxopiperidin-3-yl)-3,5-difluorophenyl)azetidin-3-yl)acetamide]	–	> 0.3
O=C1CCC(c2c(F)cc(N3CC(CC(=O)Nc4cccc(OC(F)(F)F)c4)C3)cc2F)C(=O)N1 (stereo not drawn) [Compound 39, 2-(1-(4-(2,6-dioxopiperidin-3-yl)-3,5-difluorophenyl)azetidin-3-yl)-N-(3-(trifluoromethoxy)phenyl)acetamide]	–	0.03 to 0.3

The next lines start with the values.

IC50 (CRBN-DDB1) [µM]	DC50 (GSPT1) [µM]	SMILES
0.1 to 1	< 0.03	Cc1cc(C)cc(CC(=O)NC2CN(c3cc(F)c(C4CCC(=O)NC4=O)c(F)c3)C2)c1 (stereo not drawn) [Compound 29, 2-(3,5-dimethylphenyl)-N-(1-(4-(2,6-dioxopiperidin-3-yl)-3,5-difluorophenyl)azetidin-3-yl)acetamide]
0.1 to 1	> 0.3	O=C1CCC(c2c(F)cc(N3CC(NC(=O)Cc4ccc(C5CCC5)cc4)C3)cc2F)C(=O)N1 (stereo not drawn) [Compound 20, 2-(4-cyclobutylphenyl)-N-(1-(4-(2,6-dioxopiperidin-3-yl)-3,5-difluorophenyl)azetidin-3-yl)acetamide]
0.1 to 1	> 0.3	O=C1CCC(c2c(F)cc(N3CC(NC(=O)Cc4ccc(Cl)c(F)c4)C3)cc2F)C(=O)N1 (stereo not drawn) [Compound 14, 2-(4-chloro-3-fluorophenyl)-N-(1-(4-(2,6-dioxopiperidin-3-yl)-3,5-difluorophenyl)azetidin-3-yl)acetamide]
0.1 to 1	0.03 to 0.3	O=C1CCC(c2c(F)cc(N3CC(NC(=O)Cc4ccc(Cl)cc4F)C3)cc2F)C(=O)N1 (stereo not drawn) [Compound 31, 2-(4-chloro-2-fluorophenyl)-N-(1-(4-(2,6-dioxopiperidin-3-yl)-3,5-difluorophenyl)azetidin-3-yl)acetamide]
< 0.1	> 0.3	N#Cc1ccc(CC(=O)NC2CN(c3cc(F)c(C4CCC(=O)NC4=O)c(F)c3)C2)cc1Cl (stereo not drawn) [Compound 48, 2-(3-chloro-4-cyanophenyl)-N-(1-(4-(2,6-dioxopiperidin-3-yl)-3,5-difluorophenyl)azetidin-3-yl)acetamide]
0.1 to 1	> 0.3	O=C1CCC(c2c(F)cc(N3CC(NC(=O)Cc4ccc5c(c4)OCC5)C3)cc2F)C(=O)N1 (stereo not drawn) [Compound 24, 2-(2,3-dihydrobenzofuran-6-yl)-N-(1-(4-(2,6-dioxopiperidin-3-yl)-3,5-difluorophenyl)azetidin-3-yl)acetamide]
–	0.03 to 0.3	N#Cc1cc(Cl)cc(CC(=O)NC2CN(c3cc(F)c(C4CCC(=O)NC4=O)c(F)c3)C2)c1 (stereo not drawn) [Compound 44, 2-(3-chloro-5-cyanophenyl)-N-(1-(4-(2,6-dioxopiperidin-3-yl)-3,5-difluorophenyl)azetidin-3-yl)acetamide]
